For the assay, the target named is T1, aldehyde oxidase 1 (AOX1) (Homo sapiens, UniProt Q06278).
T1 sequence (Q06278 1-1338): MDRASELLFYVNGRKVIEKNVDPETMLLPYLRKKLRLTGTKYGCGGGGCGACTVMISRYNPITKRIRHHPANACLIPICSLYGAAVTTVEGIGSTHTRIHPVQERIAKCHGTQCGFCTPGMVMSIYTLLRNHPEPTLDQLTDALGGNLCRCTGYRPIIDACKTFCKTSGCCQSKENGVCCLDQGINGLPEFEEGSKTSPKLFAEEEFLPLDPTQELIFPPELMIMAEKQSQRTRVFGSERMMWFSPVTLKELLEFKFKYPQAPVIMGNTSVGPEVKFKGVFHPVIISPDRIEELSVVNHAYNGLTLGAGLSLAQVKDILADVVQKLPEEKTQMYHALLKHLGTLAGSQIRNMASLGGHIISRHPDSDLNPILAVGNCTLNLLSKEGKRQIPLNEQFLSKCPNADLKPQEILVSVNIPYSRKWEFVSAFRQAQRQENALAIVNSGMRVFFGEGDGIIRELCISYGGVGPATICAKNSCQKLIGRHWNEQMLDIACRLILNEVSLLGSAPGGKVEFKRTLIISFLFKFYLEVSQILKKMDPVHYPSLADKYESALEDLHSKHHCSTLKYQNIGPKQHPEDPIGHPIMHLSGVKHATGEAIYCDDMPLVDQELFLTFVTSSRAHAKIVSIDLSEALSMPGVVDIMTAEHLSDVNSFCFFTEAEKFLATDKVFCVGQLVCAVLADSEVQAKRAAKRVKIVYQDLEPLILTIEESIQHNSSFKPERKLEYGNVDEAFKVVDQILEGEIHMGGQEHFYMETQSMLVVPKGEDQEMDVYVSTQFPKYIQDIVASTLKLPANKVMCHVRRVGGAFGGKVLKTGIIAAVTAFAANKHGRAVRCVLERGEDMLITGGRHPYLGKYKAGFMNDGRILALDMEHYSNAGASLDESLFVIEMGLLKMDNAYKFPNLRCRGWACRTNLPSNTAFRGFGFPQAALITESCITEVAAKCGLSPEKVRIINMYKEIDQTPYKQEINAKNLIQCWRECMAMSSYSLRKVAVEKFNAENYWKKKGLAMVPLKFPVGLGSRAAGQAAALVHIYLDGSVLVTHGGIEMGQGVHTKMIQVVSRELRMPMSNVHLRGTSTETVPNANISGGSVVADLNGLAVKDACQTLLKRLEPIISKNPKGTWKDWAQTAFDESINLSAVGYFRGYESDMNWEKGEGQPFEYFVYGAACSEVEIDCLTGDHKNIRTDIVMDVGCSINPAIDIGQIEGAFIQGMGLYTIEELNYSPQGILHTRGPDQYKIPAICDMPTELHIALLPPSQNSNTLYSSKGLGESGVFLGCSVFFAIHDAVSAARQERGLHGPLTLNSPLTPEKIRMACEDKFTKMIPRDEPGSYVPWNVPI
Kind of assay: SPR. The assay is classed as binding.

For the compound `CNC(=O)c1cc(Oc2ccc(NC(=O)Nc3ccc(Cl)c(C(F)(F)F)c3)c(F)c2)ccn1` [regorafenib], the Kd stood at 42.7 µM.

As usually defined, the Kd is the equilibrium constant for the complex coming apart. Read a high Kd as weaker binding.
